Earlier results on 1 molecule are cited in US20030143291A1, “Herbal compositions and methods for diabetes and weight loss management” (priority 2002, published 2003).

Data set [1] concerns Methicillin-resistant s. aureus.

Take `CC(C)C1=C2CCC(COC(=O)c3ccc(O)cc3)=CCC2(C)CC1` (centres unmarked) [Compound 6, 14-(4′-hydroxybenzoyloxy)dauc-4,8-diene]: the “antimicrobial activity against Staphylococcus aures” value in the data set on Staphylococcus aures is “antimicrobial activity”. In addition, the “antimicrobial activity against Methicillin-resistant s. aureus” value in data set [1] is given as “antimicrobial activity”.
